The results in this text go back to PubChem BioAssay (NCI).

Among the test systems are SF-539 CNS; DU-145 prostate; SNB-19 CNS; UO-31 renal; SF-268 CNS; 786-0 renal; K-562 leukemia; OVCAR-8 ovarian; NCI-H522 lung; HOP-62 NSCLC.
Assay in all cases: NCI tumour cell line growth inhibition, 48 h

Values joined by “and” are separate entries in the source; they are usually repeats but may differ in a detail not shown here. Identical values can stand only once.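 Growth conditions: 96-well plates. Treatment: test compound, 48 hours, 5 concentrations. Analysis: linear interpolation between bracketing concentrations; unreached endpoints set to highest concentration. Here, GI50 denotes the concentration required for 50% inhibition of growth. TGI: total growth inhibition.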 Bounds are passed on as bounds.

Take `C[C@@H]1CCc2ncc(F)cc2[C@H]2CCCN2c2ccn3ncc(c3n2)C(=O)N1`: the GI50 with SF-539 CNS was 54.6 µM; in the assay on DU-145 prostate, 73.7 µM; in the assay on SNB-19 CNS, > 100 µM; with UO-31 renal, 29.8 µM; with SF-268 CNS, > 100 µM; in the assay with 786-0 renal it was 63 µM. Further, the GI50 in the assay on K-562 leukemia was 29.8 µM; with OVCAR-8 ovarian, > 100 µM; in the assay with NCI-H522 lung, 83.7 µM; with HOP-62 NSCLC, 60 µM. In addition, the TGI with SF-539 CNS, in the assay with DU-145 prostate, in the assay with SNB-19 CNS, in the assay with UO-31 renal, with SF-268 CNS and in the assay on 786-0 renal was > 100 µM in each case. In addition, the TGI in the assay with K-562 leukemia, with OVCAR-8 ovarian, in the assay on NCI-H522 lung and in the assay with HOP-62 NSCLC was > 100 µM each time.

Turning to `O=NNc1ccc(S(=O)(=O)c2ccc3ccccc3c2)cn1`, the TGI was > 100 µM with SF-539 CNS; > 100 µM in the assay with DU-145 prostate; > 100 µM with SNB-19 CNS; 58.4 µM in the assay on UO-31 renal; > 100 µM with SF-268 CNS; > 100 µM with 786-0 renal. In addition, the TGI in the assay on K-562 leukemia, in the assay with OVCAR-8 ovarian, in the assay on NCI-H522 lung and in the assay on HOP-62 NSCLC was > 100 µM in each case.

Consider `COc1cc2c3cc1Oc1c(OC)c(OC)cc4c1C(Cc1ccc(O)c(c1)Oc1ccc(cc1)CC3N(C)CC2)N(C)CC4` (stereo not given), for which the GI50 was 2.16 µM with SF-539 CNS; 18.2 µM with DU-145 prostate; 31.5 µM in the assay on SNB-19 CNS; 13.9 µM with UO-31 renal; 15.2 µM in the assay with SF-268 CNS; 2.04 µM with K-562 leukemia. The GI50 in the assay on OVCAR-8 ovarian was 21.4 µM; with NCI-H522 lung, 13.4 µM; with HOP-62 NSCLC it was 24.3 µM. Further, the TGI with DU-145 prostate is > 100 µM and 84.4 µM; in the assay with SNB-19 CNS it was 65.8 µM and > 100 µM; in the assay on UO-31 renal, 35.7 µM and 31.9 µM; in the assay with SF-268 CNS, 64.2 µM and 51.8 µM; in the assay on 786-0 renal it was > 100 µM and 33.3 µM; in the assay on K-562 leukemia, > 100 µM and 12.9 µM. In addition, the TGI in the assay on OVCAR-8 ovarian was > 100 µM; in the assay on NCI-H522 lung it was > 100 µM and 30.4 µM; with HOP-62 NSCLC it was > 100 µM and 64.8 µM.

Regarding `COCC(C(=O)OC1C/C=C/C=C/C(=O)OC(C(C)C(O)C(C)CCC(OC(=O)C(C)N(C)C)C(C)C(OC(C)=O)C(C)/C=C/N(C)C=O)C/C=C/C(OC)CC(C)C/C=C(\C)C(OC)CCC(C)C(O)C1C)N(C)C` (stereo not given), the GI50 with SF-539 CNS was < 0.0001 µM; with DU-145 prostate it was < 0.0001 µM; in the assay on SNB-19 CNS it was < 0.0001 µM; in the assay with UO-31 renal, 0.00104 µM; in the assay on SF-268 CNS, < 0.0001 µM; in the assay on 786-0 renal, < 0.0001 µM. The GI50 with K-562 leukemia, in the assay on OVCAR-8 ovarian, in the assay on NCI-H522 lung and in the assay with HOP-62 NSCLC was < 0.0001 µM in each case. The TGI with SF-539 CNS was < 0.0001 µM; in the assay with DU-145 prostate it was 0.000156 µM; in the assay with SNB-19 CNS it was 0.111 µM; in the assay with UO-31 renal, 0.169 µM; in the assay with SF-268 CNS it was 0.00161 µM; in the assay on 786-0 renal, 0.000845 µM. Further, the TGI with K-562 leukemia was 0.116 µM; in the assay with NCI-H522 lung, < 0.0001 µM; in the assay with HOP-62 NSCLC, 0.0013 µM.

Consider `NC1=NCN(C2OC(CO)C(O)C2O)C(=O)N1` (stereo not given), for which the TGI in the assay on SF-539 CNS was found to be 342 µM; with DU-145 prostate it was 1330 µM; in the assay on SNB-19 CNS it was 2220 µM; in the assay on UO-31 renal, 872 µM; in the assay with SF-268 CNS it was 2460 µM; in the assay with 786-0 renal, 2050 µM. The TGI in the assay on K-562 leukemia came out at 788 µM; in the assay on OVCAR-8 ovarian it was 1870 µM; with NCI-H522 lung, 144 µM; in the assay on HOP-62 NSCLC it was 966 µM.

For the molecule `Nc1ccccc1C#Cc1ccccc1C#Cc1cccs1`, the GI50 in the assay on SF-539 CNS was 16.1 µM; in the assay with DU-145 prostate, 20.6 µM; with SNB-19 CNS it was 29.9 µM; in the assay on UO-31 renal, 19.1 µM; with SF-268 CNS, 20.4 µM; in the assay on 786-0 renal, 16.3 µM. For the same molecule, the GI50 in the assay on K-562 leukemia is 15.5 µM; with OVCAR-8 ovarian, 42.7 µM; in the assay with NCI-H522 lung, 18.4 µM; in the assay on HOP-62 NSCLC, 15.1 µM. Further, the TGI in the assay on SF-539 CNS is 32.9 µM; in the assay on DU-145 prostate, 48 µM; with SNB-19 CNS it was > 100 µM; in the assay with UO-31 renal, 47.3 µM; with SF-268 CNS it was 42.8 µM; with 786-0 renal, 31 µM. Also, the TGI with K-562 leukemia is 40.7 µM; with OVCAR-8 ovarian, > 100 µM; in the assay with NCI-H522 lung, 49.1 µM; with HOP-62 NSCLC, 29.3 µM.

For `COc1cc2cc(Oc3cccc(NC(=O)Nc4cc(C(F)(F)F)cc(C(F)(F)F)c4)c3)c(C)nc2cc1OC`, the GI50 in the assay on SF-539 CNS was 1.45 µM; in the assay on DU-145 prostate, 2.38 µM; in the assay with SNB-19 CNS, 0.654 µM; with UO-31 renal, 0.266 µM; in the assay with SF-268 CNS, 1.62 µM; with 786-0 renal, 1.61 µM. The GI50 was 0.573 µM in the assay on K-562 leukemia, 1.63 µM with OVCAR-8 ovarian, 1.25 µM in the assay on NCI-H522 lung and 1.35 µM in the assay on HOP-62 NSCLC. For the same molecule, the TGI with SF-539 CNS is 3.21 µM; in the assay on DU-145 prostate, 9.36 µM; with SNB-19 CNS, 2.16 µM; with UO-31 renal, 1.65 µM; in the assay with SF-268 CNS, 3.68 µM; in the assay on 786-0 renal it was 3.09 µM. Moreover, the TGI with K-562 leukemia turned out to be 2.53 µM; in the assay with OVCAR-8 ovarian, 4.22 µM; in the assay on NCI-H522 lung, 2.95 µM; in the assay on HOP-62 NSCLC it was 2.88 µM.

Take `CCOc1ccc2cc(-c3nn(CC4CCNCC4)c4ncnc(N)c34)ccc2c1`: the GI50 is 13.9 µM in the assay on SF-539 CNS; 19.1 µM in the assay on DU-145 prostate; 16.7 µM in the assay with SNB-19 CNS; 5.61 µM with UO-31 renal; 12 µM in the assay with SF-268 CNS; 14.6 µM in the assay with 786-0 renal. Moreover, the GI50 in the assay with K-562 leukemia was 4.69 µM; with NCI-H522 lung it was 15.8 µM; in the assay on HOP-62 NSCLC it was 16.3 µM. For the same molecule, the TGI came to 26.9 µM in the assay with SF-539 CNS; 55.6 µM in the assay on DU-145 prostate; 34.5 µM in the assay with SNB-19 CNS; 20.7 µM in the assay on UO-31 renal; 28.2 µM in the assay on SF-268 CNS; 28.4 µM in the assay on 786-0 renal. Moreover, the TGI in the assay with K-562 leukemia came out at 17.1 µM; in the assay on NCI-H522 lung, 30.4 µM; in the assay with HOP-62 NSCLC, 39.4 µM.
